Laboratory results taken from patent US9492471B2, “Methods of treating a disease or disorder associated with Bruton'S Tyrosine Kinase” (Celgene Avilomics Research, Inc., priority 2013, dated 2016).
Like-named read-outs stand apart in the source and are kept apart here.

Tests used:
Test in all cases: HotSpot kinase profiling
Format in all cases: biochemical
CDK6/cyclin D3 = target: T1, CDK6/cyclin D3 (Homo sapiens, UniProt Q00534)
T1 construct: purchased Reaction Biology Corp
Procedure, shortened: (§1)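 P81 filtration radiometric readout; 2 h incubation at room temperature; 0.1% phosphoric acid wash; DMSO negative control; % inhibition, mean of replicate runs.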

STK22D/TSSK1 = target: T2, STK22D/TSSK1 (Homo sapiens, UniProt Q9BXA7)
T2 construct: purchased Reaction Biology Corp
T2 sequence (Q9BXA7 1-367): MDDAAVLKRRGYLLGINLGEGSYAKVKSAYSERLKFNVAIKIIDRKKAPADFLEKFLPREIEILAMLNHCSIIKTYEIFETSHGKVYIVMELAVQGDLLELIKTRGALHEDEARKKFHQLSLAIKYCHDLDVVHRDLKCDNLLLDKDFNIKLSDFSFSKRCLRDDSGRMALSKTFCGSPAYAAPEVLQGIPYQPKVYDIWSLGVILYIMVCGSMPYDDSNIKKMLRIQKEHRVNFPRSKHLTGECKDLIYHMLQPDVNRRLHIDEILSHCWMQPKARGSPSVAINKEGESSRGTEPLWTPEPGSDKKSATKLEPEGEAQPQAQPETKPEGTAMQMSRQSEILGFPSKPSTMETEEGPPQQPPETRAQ
Procedure, shortened: as §1

TRKA = target: T3, TRKA (Homo sapiens, UniProt P04629)
T3 construct: purchased Reaction Biology Corp
T3 sequence (P04629 33-796): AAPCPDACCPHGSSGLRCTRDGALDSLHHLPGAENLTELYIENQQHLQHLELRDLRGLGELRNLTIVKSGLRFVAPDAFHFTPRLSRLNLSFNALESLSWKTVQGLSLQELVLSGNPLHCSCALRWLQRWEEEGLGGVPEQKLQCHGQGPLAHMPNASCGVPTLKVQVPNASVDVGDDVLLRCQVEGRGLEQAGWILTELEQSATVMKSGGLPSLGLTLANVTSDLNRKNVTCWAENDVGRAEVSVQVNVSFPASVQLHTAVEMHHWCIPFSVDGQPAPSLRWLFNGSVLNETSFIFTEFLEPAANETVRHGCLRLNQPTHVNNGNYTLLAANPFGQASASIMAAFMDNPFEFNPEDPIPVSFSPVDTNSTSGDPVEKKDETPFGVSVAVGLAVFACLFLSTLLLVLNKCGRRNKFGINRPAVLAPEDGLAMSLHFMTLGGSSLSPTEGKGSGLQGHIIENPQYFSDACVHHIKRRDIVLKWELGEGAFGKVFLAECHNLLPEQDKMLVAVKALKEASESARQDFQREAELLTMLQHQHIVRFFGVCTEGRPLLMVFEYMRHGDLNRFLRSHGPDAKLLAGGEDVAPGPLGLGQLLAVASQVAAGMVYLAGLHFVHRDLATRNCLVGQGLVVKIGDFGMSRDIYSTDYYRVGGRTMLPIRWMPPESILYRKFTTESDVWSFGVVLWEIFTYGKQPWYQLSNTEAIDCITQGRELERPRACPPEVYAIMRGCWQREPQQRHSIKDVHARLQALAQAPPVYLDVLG
Procedure, shortened: as §1

JAK1 = target: T4, JAK1 (Homo sapiens, UniProt P23458)
T4 construct: purchased Reaction Biology Corp
T4 sequence (P23458 whole entry): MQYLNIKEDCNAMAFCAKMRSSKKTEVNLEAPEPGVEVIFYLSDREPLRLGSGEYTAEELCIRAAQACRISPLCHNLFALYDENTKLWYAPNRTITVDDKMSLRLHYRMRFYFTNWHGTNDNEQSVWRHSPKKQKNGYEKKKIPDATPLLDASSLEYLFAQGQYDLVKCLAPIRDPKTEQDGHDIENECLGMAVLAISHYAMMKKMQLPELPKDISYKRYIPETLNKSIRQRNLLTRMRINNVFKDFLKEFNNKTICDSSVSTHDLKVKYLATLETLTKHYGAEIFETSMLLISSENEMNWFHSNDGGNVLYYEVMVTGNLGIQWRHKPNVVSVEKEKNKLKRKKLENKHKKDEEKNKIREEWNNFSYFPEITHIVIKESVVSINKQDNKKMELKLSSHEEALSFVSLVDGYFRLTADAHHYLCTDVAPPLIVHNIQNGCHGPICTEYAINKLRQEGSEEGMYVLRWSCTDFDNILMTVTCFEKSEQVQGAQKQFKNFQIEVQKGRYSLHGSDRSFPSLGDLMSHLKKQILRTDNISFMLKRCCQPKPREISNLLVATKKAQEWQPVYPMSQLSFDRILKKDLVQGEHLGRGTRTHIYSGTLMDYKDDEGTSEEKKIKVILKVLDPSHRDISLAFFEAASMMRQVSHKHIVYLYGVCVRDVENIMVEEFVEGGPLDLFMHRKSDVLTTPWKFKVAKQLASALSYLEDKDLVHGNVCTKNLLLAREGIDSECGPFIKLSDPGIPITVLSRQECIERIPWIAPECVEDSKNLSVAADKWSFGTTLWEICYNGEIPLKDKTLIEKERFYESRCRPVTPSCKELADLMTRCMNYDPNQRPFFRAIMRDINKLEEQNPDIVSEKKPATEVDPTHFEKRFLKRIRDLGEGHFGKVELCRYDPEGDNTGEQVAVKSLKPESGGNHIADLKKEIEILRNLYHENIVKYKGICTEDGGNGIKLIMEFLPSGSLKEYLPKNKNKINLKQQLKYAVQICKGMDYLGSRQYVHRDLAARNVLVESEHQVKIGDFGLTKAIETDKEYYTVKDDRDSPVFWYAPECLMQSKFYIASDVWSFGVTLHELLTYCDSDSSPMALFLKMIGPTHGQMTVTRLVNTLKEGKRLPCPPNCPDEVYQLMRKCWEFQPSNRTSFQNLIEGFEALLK
Procedure, shortened: as §1

CAMK1d = target: T5, CAMK1d (Homo sapiens, UniProt Q8IU85)
T5 construct: purchased Reaction Biology Corp
T5 sequence (Q8IU85 whole entry): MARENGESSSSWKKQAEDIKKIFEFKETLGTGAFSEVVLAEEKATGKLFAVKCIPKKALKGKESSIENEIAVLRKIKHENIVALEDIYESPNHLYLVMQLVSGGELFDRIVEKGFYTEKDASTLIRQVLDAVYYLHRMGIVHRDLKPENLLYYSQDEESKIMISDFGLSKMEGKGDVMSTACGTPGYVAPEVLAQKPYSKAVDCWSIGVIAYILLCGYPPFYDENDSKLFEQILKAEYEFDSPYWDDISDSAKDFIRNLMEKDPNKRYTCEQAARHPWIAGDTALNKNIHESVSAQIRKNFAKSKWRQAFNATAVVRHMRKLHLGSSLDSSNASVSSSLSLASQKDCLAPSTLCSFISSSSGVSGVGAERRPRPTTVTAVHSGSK
Procedure, shortened: as §1

BMPR2 = target: T6, BMPR2 (Homo sapiens, UniProt Q13873)
T6 construct: purchased Reaction Biology Corp
T6 sequence (Q13873 27-1038): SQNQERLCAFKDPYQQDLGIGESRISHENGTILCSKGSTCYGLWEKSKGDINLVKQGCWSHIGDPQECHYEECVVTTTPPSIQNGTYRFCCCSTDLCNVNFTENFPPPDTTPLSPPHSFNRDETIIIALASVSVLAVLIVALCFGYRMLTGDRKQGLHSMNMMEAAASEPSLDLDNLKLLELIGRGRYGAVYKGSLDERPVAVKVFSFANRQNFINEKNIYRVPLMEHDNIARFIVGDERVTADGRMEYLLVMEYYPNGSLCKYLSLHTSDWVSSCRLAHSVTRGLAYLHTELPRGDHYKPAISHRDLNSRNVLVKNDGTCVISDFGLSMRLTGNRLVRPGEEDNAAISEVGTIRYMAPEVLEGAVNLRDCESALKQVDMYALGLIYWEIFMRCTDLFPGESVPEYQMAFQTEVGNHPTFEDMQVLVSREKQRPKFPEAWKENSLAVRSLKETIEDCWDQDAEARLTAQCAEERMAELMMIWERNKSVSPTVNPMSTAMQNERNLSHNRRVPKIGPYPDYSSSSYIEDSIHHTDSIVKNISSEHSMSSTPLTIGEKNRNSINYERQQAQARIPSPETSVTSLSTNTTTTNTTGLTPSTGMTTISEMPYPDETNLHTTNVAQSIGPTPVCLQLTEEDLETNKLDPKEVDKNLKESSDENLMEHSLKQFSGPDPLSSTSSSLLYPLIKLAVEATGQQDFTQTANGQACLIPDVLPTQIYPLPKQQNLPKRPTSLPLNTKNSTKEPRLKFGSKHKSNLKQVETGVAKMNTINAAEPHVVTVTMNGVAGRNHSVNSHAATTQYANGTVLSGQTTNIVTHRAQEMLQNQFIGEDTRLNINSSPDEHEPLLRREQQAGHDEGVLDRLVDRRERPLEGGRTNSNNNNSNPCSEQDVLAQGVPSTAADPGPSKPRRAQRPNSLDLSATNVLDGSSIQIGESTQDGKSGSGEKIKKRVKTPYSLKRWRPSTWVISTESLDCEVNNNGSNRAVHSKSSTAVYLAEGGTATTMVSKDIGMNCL
Procedure, shortened: as §1

GRK4 = target: T7, GRK4 (Homo sapiens, UniProt P32298)
T7 construct: purchased Reaction Biology Corp
T7 sequence (P32298 whole entry): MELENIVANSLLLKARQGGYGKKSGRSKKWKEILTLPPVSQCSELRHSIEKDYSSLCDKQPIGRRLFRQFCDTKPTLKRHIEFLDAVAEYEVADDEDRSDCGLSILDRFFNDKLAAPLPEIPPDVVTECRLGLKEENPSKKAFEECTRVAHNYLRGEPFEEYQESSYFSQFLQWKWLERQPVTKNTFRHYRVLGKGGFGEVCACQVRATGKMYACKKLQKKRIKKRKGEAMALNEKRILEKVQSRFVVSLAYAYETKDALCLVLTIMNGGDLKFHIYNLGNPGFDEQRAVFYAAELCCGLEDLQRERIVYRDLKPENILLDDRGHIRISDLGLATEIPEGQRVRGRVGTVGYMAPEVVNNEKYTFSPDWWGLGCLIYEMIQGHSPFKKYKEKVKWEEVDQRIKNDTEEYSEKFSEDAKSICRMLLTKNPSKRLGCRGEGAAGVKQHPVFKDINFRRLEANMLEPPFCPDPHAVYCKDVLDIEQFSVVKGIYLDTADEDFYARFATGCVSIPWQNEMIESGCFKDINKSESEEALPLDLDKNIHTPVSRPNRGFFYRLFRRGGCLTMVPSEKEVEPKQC
Procedure, shortened: as §1

NEK6 = target: T8, NEK6 (Homo sapiens, UniProt Q9HC98)
T8 construct: purchased Reaction Biology Corp
T8 sequence (Q9HC98 whole entry): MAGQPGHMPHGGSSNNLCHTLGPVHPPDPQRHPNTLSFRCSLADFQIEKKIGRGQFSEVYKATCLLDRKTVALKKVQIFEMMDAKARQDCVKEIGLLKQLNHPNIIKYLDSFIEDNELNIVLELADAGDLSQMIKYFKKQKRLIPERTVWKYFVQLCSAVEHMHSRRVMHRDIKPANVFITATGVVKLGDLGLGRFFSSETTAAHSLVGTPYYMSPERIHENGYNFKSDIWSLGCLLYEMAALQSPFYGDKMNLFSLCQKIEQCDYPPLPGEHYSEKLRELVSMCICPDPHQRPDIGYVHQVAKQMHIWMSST
Procedure, shortened: as §1

[1] = read-out: % Enzyme Activity (relative to DMSO controls) Run 1
[2] = read-out: % Enzyme Activity (relative to DMSO controls) Run 2

T1 sequence (Q00534 whole entry): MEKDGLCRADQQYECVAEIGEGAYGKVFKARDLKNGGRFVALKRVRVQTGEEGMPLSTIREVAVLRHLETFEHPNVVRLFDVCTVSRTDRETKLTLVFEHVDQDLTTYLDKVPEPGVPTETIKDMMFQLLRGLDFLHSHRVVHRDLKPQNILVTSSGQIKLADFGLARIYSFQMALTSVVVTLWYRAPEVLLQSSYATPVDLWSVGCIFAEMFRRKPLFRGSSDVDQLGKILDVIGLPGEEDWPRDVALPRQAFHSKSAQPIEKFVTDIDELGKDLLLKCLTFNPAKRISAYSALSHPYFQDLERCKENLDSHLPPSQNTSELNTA
T1 sequence (P30281 whole entry partner): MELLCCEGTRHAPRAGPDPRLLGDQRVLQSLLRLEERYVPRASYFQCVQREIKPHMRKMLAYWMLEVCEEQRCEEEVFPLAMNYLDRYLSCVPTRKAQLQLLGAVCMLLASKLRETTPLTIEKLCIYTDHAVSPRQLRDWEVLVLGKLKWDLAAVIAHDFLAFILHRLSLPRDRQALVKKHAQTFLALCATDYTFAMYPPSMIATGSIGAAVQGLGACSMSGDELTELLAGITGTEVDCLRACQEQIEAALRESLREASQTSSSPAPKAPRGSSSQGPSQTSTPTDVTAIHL

Structure (SMILES): C=CC(=O)Nc1cccc(Nc2nc(Nc3ccc(OCCOC)c(F)c3)ncc2F)c1 [Compound 2]
- inhibition at 3 µM (CDK6/cyclin D3): 0.16%
- remaining activity at 3 µM (CDK6/cyclin D3; [1]): 99.5%
- remaining activity at 3 µM (CDK6/cyclin D3; [2]): 100%
- inhibition at 3 µM (STK22D/TSSK1): 11.1%
- remaining activity at 3 µM (STK22D/TSSK1; [1]): 88%
- remaining activity at 3 µM (STK22D/TSSK1; [2]): 89.7%
- inhibition at 3 µM (TRKA): -17.7%
- remaining activity at 3 µM (TRKA; [1]): 117%
- remaining activity at 3 µM (TRKA; [2]): 118%
- inhibition at 3 µM (JAK1): 40.6%
- remaining activity at 3 µM (JAK1; [1]): 59.7%
- remaining activity at 3 µM (JAK1; [2]): 59%
- inhibition at 3 µM (CAMK1d): -3.36%
- remaining activity at 3 µM (CAMK1d; [1]): 104%
- remaining activity at 3 µM (CAMK1d; [2]): 103%
- inhibition at 3 µM (BMPR2): 16.2%
- remaining activity at 3 µM (BMPR2; [1]): 83.8%
- remaining activity at 3 µM (BMPR2; [2]): 83.8%
- inhibition at 3 µM (GRK4): -6.61%
- remaining activity at 3 µM (GRK4; [1]): 107%
- remaining activity at 3 µM (GRK4; [2]): 106%
- inhibition at 3 µM (NEK6): -5.69%
- remaining activity at 3 µM (NEK6; [1]): 106%
- remaining activity at 3 µM (NEK6; [2]): 105%
